From patent US20070275104A1, “Food Compositions and Methods of Treating Periodontal Disease” (priority 2006, published 2007)

Experiments:
Format in all cases: biochemical
[1] = molecular target: T1, MMP-8 (purified human neutrophil collagenase) (Homo sapiens, UniProt P22894); test: MMP-8 enzyme assay with fluorescent peptide substrate; settings: APMA-activated MMP-8, 22° C., EAB pH 7.0
T1 construct: purchased EMD Biosciences/Calbiochem 444229
Protocol: (§1) From the studies of repeated activity and lack of interference, we were able to identify three lead ingredients for further development (A, C, D; A & B were two forms of the same dried extract). These were tested in a second laboratory, using a more sensitive in vitro (non-cellular) assay system, again for individual activity and interference/synergy among MMP-inhibitors and the IL-1-inhibitor against all three forms of MMP. These assays used enzyme kinetic dose curves to determine the IC50 of each extract, Doxycyclin, and combinations of extracts (including the IL-1-inhibitor, e.g., Rosehips).
MMP-8: Purified human neutrophil collagenase was purchased from EMD
Biosciences/Calbiochem, cat # 444229. Activation of MMP-8 was required for the experiments and was performed using aminophenylmercuric acetate (APMA) for 2 h at 37° C.
Peptide substrate: The fluorescent peptide substrate Mca-Pro-Leu-Gly-Leu-Dnp-Ala-Arg-NH2 was for measuring the MMP-8 activities (Peptides International, Louisville, Ky.). The Mca is a fluorescent group and Dnp is a quencher. When the cleavage occurs, a strong fluorescent signal is released and can be measured with λex at 328 nm and λem at 393 nm.
To reduce any self-degradation of the gelatin substrate, all assays were performed at 22° C. […]

Recombinant MMP-2 = molecular target: T2, Recombinant MMP-2 (Homo sapiens, UniProt P08253); test: MMP-2 enzyme assay with DQ gelatin fluorescent substrate; settings: 22° C., EAB pH 7.0, soluble phase of extracts
T2 construct: made in house
T2 sequence (P08253 110-660): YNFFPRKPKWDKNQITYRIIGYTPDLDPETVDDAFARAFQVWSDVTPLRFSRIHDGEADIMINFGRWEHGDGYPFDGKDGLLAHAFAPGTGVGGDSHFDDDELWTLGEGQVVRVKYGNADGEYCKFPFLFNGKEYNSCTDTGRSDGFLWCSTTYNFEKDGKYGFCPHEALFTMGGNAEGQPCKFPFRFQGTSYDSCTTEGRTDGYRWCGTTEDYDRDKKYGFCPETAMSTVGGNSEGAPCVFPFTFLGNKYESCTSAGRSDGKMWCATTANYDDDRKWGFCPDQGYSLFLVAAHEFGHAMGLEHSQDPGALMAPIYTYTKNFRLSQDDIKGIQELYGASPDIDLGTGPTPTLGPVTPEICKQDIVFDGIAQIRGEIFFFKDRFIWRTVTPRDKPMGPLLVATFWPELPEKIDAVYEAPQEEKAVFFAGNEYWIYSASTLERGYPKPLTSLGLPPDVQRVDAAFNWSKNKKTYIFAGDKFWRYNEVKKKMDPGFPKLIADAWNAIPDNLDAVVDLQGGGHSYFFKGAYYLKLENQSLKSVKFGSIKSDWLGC
Protocol: as §1
MMP-2 and MMP-9: Recombinant MMP-2 and MMP-9 were expressed as recombinant proteins and purified in constitutively active forms.
DQ gelatin: A highly labeled porcine gelatin substrate (Molecular Probes, Eugine, Oreg.) was used for the enzyme assays with MMP-2 and MMP-9. The substrate degradation was measured with λex at 494 nm and λem at 515 nm
To reduce any self-degradation of the gelatin substrate, all assays were performed at 22° C. The enzyme assay buffer (EAB) used for MMP-2, MMP-9, and MMP-8 was 50 mM Tris, pH 7.0, 200 mM NaCl, 5 mM CaCl2, 1 μM ZnCl2, 0.05% Brij 35. Assays were performed under conditions where the substrates were not rate limiting. […]

MMP-8 = molecular target: T3, MMP-8 (Homo sapiens, UniProt P22894); test: BIOMOL colorimetric assay kit screen of botanical extracts, MMP-8 proteolytic activity; settings: first round screening; relative to Doxycycline
T3 construct: purchased BIOMOL
Excerpt: (§2) In excess of 80 botanical extracts (BE), were screened in vitro for inhibition against MMP-2, 8, & 9 proteolytic activity. […] Individual calorimetric assay kits (BIOMOL) were used according to the manufacturer's instructions to measure the proteolytic activity of MMP's-2, 8, and 9 in the presence or absence of individual extracts and define mixtures of extracts. The known MMP-inhibitor, Doxycycline was used as an internal standard for comparison of inhibiting activity. The following final concentrations of individual ingredients are combined (along with additional confirmatory test of the “neat” ingredients). Again all tests include a “gold standard” positive control (Doxycycline). The purpose of this interference testing is to see whether combined ingredients result in different levels of inhibition for all three MMP's (2, 8, 9) than found for individual ingredients. All samples are dissolved or extracted in water where practical and otherwise specified.

MMP-2 or 9 = test: BIOMOL colorimetric assay kit screen of botanical extracts, MMP-2 or 9 proteolytic activity; settings: first round screening; relative to Doxycycline
Excerpt: as §2

T1 sequence (P22894 101-467): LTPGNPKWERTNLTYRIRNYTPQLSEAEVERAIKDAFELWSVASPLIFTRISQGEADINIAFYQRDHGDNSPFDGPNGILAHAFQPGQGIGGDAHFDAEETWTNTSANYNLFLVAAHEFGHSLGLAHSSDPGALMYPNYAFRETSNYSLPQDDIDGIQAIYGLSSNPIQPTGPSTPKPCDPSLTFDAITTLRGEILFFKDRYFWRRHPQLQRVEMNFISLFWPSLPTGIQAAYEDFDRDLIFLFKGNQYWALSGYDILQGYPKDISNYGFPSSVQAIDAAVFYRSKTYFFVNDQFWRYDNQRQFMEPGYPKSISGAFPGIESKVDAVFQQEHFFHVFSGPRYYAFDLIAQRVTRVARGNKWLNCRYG
T3 sequence (P22894 100-262 limits assumed): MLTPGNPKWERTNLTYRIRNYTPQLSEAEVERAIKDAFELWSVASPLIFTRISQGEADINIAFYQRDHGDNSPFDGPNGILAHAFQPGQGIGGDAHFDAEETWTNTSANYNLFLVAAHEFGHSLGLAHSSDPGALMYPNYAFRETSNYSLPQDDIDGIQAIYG

IC50 for MMP-8 [1] | IC50 for MMP-2 (Recombinant MMP-2) | SMILES | Inhib. Relative to Doxy. (Fold = % inhib X/% inhib Dox), MMP-8 (MMP-8) | Inhib. Relative to Doxy. (Fold = % inhib X/% inhib Dox), MMP-2 or 9 (MMP-2 or 9)
35 mg/L | 32 mg/L | C[C@H]1c2cccc(O)c2C(O)=C2C(=O)[C@]3(O)C(O)=C(C(N)=O)C(=O)[C@@H](N(C)C)[C@@H]3[C@@H](O)[C@@H]21 [DOX, Doxycycline] | – | –
– | – | O=c1c(O)c(-c2ccc(O)c(O)c2)oc2cc(O)cc(O)c12 [E) Quercetin, Quercetin] | 0.82 Fold | 1.56 Fold
